Molecular target: T1, PAL (phenylalanine ammonia lyase) of SYNB1618 (Photorhabdus laumondii, UniProt Q7N4T3)
T1 construct: gene plu2234; expressed in cytosol of engineered E. coli Nissle 1917 (SYNB1618, with PheP transporter, dapA deleted); whole-cell assay, LAAD not induced; multimeric
Assay: d5-TCA formation from d5-Phe by whole SYNB1618 cells, LC-MS/MS
Assay type: cell-based
Conditions: whole-cell product (feedback) inhibition; 20 mM d5-Phe; 0.0–8.0 mM exogenous unlabeled TCA; 60 min

T1 sequence (Q7N4T3 entry or part of it): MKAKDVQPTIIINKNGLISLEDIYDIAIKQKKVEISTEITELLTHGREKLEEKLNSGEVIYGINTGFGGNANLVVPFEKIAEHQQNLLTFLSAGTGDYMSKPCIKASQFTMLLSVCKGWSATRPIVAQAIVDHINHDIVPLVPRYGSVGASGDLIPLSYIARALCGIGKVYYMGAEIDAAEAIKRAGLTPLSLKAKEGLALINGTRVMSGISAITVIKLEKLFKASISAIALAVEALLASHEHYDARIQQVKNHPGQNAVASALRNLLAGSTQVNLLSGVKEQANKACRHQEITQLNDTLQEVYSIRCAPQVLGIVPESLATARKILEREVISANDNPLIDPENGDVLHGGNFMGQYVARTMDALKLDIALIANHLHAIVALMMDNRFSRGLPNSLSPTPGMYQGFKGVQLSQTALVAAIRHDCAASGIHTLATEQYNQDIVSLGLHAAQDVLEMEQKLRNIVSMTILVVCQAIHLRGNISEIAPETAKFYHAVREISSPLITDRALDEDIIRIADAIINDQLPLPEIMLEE

O=C(O)/C=C/c1ccccc1 [TCA]
% decrease of de novo d5-TCA production: up to 60

— article PMC8298439, “Development of a mechanistic model to predict synthetic biotic activity in healthy volunteers and patients with phenylketonuria” (Communications Biology, 2021)
